PubChem BioAssay (NCI)
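Compound exposure: 48 hours, 5 concentrations, 96-well plates. The concentration for 50% growth inhibition is given as GI50. At the TGI there is no net growth.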

Legend:
Assay in all cases: NCI tumour cell line growth inhibition, 48 h
CAKI-1 renal = system: CAKI-1 renal
HL-60(TB) leukemia = system: HL-60(TB) leukemia
HOP-62 NSCLC = system: HOP-62 NSCLC
HT29 colon = system: HT29 colon
KM12 colon = system: KM12 colon
OVCAR-8 ovarian = system: OVCAR-8 ovarian
SK-MEL-5 melanoma = system: SK-MEL-5 melanoma
SK-OV-3 ovarian = system: SK-OV-3 ovarian
SNB-75 CNS = system: SNB-75 CNS
U251 CNS = system: U251 CNS

| SMILES | GI50 (CAKI-1 renal) [µM] | TGI (CAKI-1 renal) [µM] | GI50 (HL-60(TB) leukemia) [µM] | TGI (HL-60(TB) leukemia) [µM] | GI50 (HOP-62 NSCLC) [µM] | TGI (HOP-62 NSCLC) [µM] | GI50 (HT29 colon) [µM] | TGI (HT29 colon) [µM] | GI50 (KM12 colon) [µM] | TGI (KM12 colon) [µM] | GI50 (OVCAR-8 ovarian) [µM] | TGI (OVCAR-8 ovarian) [µM] | GI50 (SK-MEL-5 melanoma) [µM] | TGI (SK-MEL-5 melanoma) [µM] | GI50 (SK-OV-3 ovarian) [µM] | TGI (SK-OV-3 ovarian) [µM] | GI50 (SNB-75 CNS) [µM] | TGI (SNB-75 CNS) [µM] | GI50 (U251 CNS) [µM] | TGI (U251 CNS) [µM] |
| --- | --- | --- | --- | --- | --- | --- | --- | --- | --- | --- | --- | --- | --- | --- | --- | --- | --- | --- | --- | --- |
| Clc1nc(Cl)c2ncn(Cc3ccc(COc4cccc(OCc5ccc(Cn6cnc7c(Cl)nc(Cl)nc76)cc5)c4)cc3)c2n1 | > 100 | > 100 | 13.5 | 34.3 | 63.4 | > 100 | > 100 | > 100 | 58.2 | > 100 | 33.6 | > 100 | 14.3 | 95.5 | > 100 | > 100 | 8.39 | > 100 | 19.8 | > 100 |
| CCOC(=O)NN1C(=O)C(=P(c2ccccc2)(c2ccccc2)c2ccccc2)C(C(=O)OCC)=C1C | – | > 100 | – | > 100 | – | > 100 | – | > 100 | – | > 100 | – | > 100 | – | > 100 | – | > 100 | – | > 100 | – | > 100 |
| CCN(Cc1ccccc1OC)c1ccc(CO)c(Cl)c1 | 5.62 | 23.9 | 11.8 | 34.9 | 3.16 | 16.4 | 4.7 | 18 | 11 | 25.8 | 12.4 | 31.8 | 6.61 | 19.9 | 7.15 | 20.9 | 9.47 | 26.5 | 1.38 | 14.8 |
| O=C1/C(=C/c2ccc(O)cc2)COc2ccc(-c3ccccc3)cc21 | 6.9 | 20.2 | 0.465 | > 38.2 | 19.3 | 36.4 | 3.35 | 11.5 | 2.28 | 7.54 | 9.27 | 23.1 | 8.67 | 22.9 | 21.4 | 46.1 | 5.17 | 15.5 | 5.1 | 17.8 |
| Clc1nc(Cl)c2c(ncn2C/C=C\Cn2cnc3c(Cl)nc(Cl)nc32)n1 | 1.63 | 3.83 | 1.85 | > 100 | 2.35 | 5.21 | 1.4 | 2.73 | 1.82 | 3.41 | 1.2 | 4.37 | 1.31 | 2.79 | 2.48 | 9.07 | 2.19 | 6.68 | 1.85 | 3.91 |
| O=C(CCl)N1c2ccccc2Sc2c1ccc1ccccc21 | 2.05 | 5.04 | 3.06 | 8.98 | 3.29 | 12.9 | 3.58 | 15.5 | 6.31 | 20.1 | 2.13 | 5.48 | 1.73 | 3.15 | 13.4 | 26.2 | 2.45 | 7.78 | 1.65 | 3.13 |
| CN(C)CCCN1CCc2c([nH]c3ccccc23)C1c1cccnc1 (stereo not given) | – | > 100 | – | > 100 | – | > 100 | – | > 100 | – | > 100 | – | > 100 | – | > 100 | – | > 100 | – | > 100 | – | > 100 |
| C[C@H]1[C@H](C)CC[C@]2(C(=O)O)CC[C@]3(C)C(=CC[C@@H]4[C@@]5(C)C/C(=C/c6cccnc6)[C@H](O)C(C)(C)[C@@H]5CC[C@]43C)[C@H]12 | 17.8 | > 100 | 9.83 | 32.6 | 16.4 | 55.6 | 14.4 | 33.9 | 7.61 | 36.1 | 20.5 | > 100 | 13.7 | 35.7 | 19.9 | > 100 | 28.6 | > 100 | 10.9 | 27.8 |
| O=C(CN1CCN(c2ccccc2)CC1)N1CCc2c([nH]c3ccccc23)C1c1cccnc1 (stereo not given) | – | > 72.6 | – | > 100 | – | > 100 | – | > 100 | – | > 100 | – | > 100 | – | > 100 | – | > 88.3 | – | 23.4 | – | 42.2 |
| COc1ccc(NC(=O)c2cc(OC)c(OC)c(OC)c2)cc1 | – | > 100 | – | 68 | – | 99.7 | – | > 100 | – | > 100 | – | > 100 | – | > 80.6 | – | > 100 | – | > 100 | – | > 100 |
| C[C@@H]1COCCN1c1cc(C2(S(C)(=N)=O)CC2)nc(-c2ccnc3[nH]ccc23)n1 (stereo not given in full) | 2.34 | 25.5 | 4 | > 100 | 2.94 | 36.1 | 6.95 | > 100 | 5.72 | 63.1 | 5.41 | 58.5 | 4.17 | 35 | 5.27 | 56.4 | 1.64 | 12.8 | 5.46 | 63.9 |
| CN(C)CCOc1ccc2c(c1)C/C(=C/c1ncc([N+](=O)[O-])n1C)C2=O | – | 7.81 | – | 71.7 | – | 11.4 | – | 4.92 | – | 11.6 | – | 8.01 | – | 3.49 | – | 15 | – | 7.54 | – | 20.5 |
| CC[C@H](CC#N)OC(=O)N[C@@H](C)c1cccc(NC(=O)Nc2ccc(-c3cnco3)c(OC)c2)c1 | 0.0696 | 0.396 | 0.184 | 38.5 | 0.0856 | 36.8 | < 0.0199 | 21.7 | 0.0715 | 18.1 | 0.0612 | 23.5 | 0.18 | 16.4 | 0.0722 | > 63.8 | 0.11 | 27.8 | 0.0406 | 44.8 |
| Cc1cccc(C(C)C)c1NC(=O)C(=O)CC(=O)c1c(C)n([O-])c2ccccc2[n+]1=O | – | > 100 | – | > 100 | – | > 100 | – | > 100 | – | > 100 | – | > 100 | – | > 100 | – | > 100 | – | 71.1 | – | 95.9 |
| CCc1cc(O)c(Cl)c(C)c1Cl | – | 32.7 | – | > 100 | – | 33.2 | – | 39.1 | – | 28.5 | – | 40.6 | – | 33.3 | – | 34.5 | – | 34.1 | – | 38.1 |
| CN(C)C(=S)N=Nc1c(O)[nH]c2ccccc12 | 0.257 | 1.26 | 1.32 | 7.24 | 0.708 | 14.7 | 0.558 | 17 | 0.496 | 12.9 | 0.525 | 26 | 0.626 | 12.5 | 0.79 | 13.9 | 3.01 | 18.5 | 0.392 | 27.6 |
| CC(=O)OC1c2ccccc2CCCCCCC12OCCO2 (stereo not given) | – | > 100 | – | > 100 | – | > 100 | – | > 100 | – | > 100 | – | > 100 | – | > 100 | – | > 100 | – | > 100 | – | > 100 |
| Nc1cc(N)c(N)cc1N | 2.55 | 7.17 | 2.17 | 6.02 | 1.76 | 3.35 | 2.42 | 4.86 | 2.88 | 10.7 | 3.15 | 12.3 | 0.736 | 2.02 | 7.12 | 42.2 | 1.47 | 2.87 | 1.82 | 3.75 |
| NNC(=O)CCC(=O)NC1C2CC3CC(C2)CC1C3 (stereo not given) | – | > 100 | – | > 100 | – | > 100 | – | > 100 | – | > 100 | – | > 100 | – | > 100 | – | > 100 | – | > 100 | – | > 100 |
| COc1ccc(C2S/C(=C\c3ccc(O)cc3)C(=O)N2NC(=O)Cc2ccccc2)cc1 (stereo not given) | – | > 100 | – | > 100 | – | > 100 | – | > 100 | – | > 100 | – | > 100 | – | > 100 | – | > 100 | – | > 100 | – | > 100 |
| COc1ccc(C(C#N)NNc2nc(C)cc(=O)[nH]2)cc1OC (stereo not given) | – | > 100 | – | > 100 | – | > 100 | – | > 100 | – | > 100 | – | > 100 | – | > 100 | – | > 100 | – | > 100 | – | > 100 |
| COc1cc([C@@H]2c3cc4c(cc3[C@@H](NC(=O)c3ccccc3)C3COC(=O)[C@@H]32)OCO4)cc(OC)c1O (stereo not given in full) | – | > 100 | – | 9.44 | – | 13 | – | 22 | – | 28.3 | – | 37.7 | – | 14.1 | – | > 100 | – | 38 | – | 13.5 |
| CC/C=C\C/C=C\C/C=C\CCCCCCCC(=O)OCC | – | > 100 | – | > 100 | – | > 100 | – | > 100 | – | > 100 | – | > 100 | – | > 100 | – | > 100 | – | > 100 | – | > 100 |
| COc1ccc(O)c(C#N)c1C#N | – | > 100 | – | > 100 | – | > 100 | – | > 100 | – | > 100 | – | > 100 | – | > 100 | – | > 100 | – | > 100 | – | > 100 |
